Assay results from patent US6540988B1, “Method of reducing or preventing malodour” (Quest International B.V., priority 1998, dated 2003).

Tested on: bacterial production of odoriferous steroids
Assay: sub-lethal inhibition of the bacterial production of odoriferous steroids
Assay type: cell-based

## CC(C)(C)NC(=O)[C@H]1CC[C@H]2[C@@H]3CC[C@H]4NC(=O)C=C[C@]4(C)[C@H]3CC[C@]12C [finasteride]
  sub-lethally inhibiting the bacterial production of odoriferous steroids: incapable of sub-lethally inhibiting
